Measurements reported in patent publication US4727080A, “1-substituted derivatives of 6-fluoro-7-(pyrrol-1-yl)-1,4-dihydro-4-oxoquinoline-3-carboxylic acid, their preparation and their application as drugs” (Provesan S.A., priority 1984, dated 1988).
Converted amounts (≈) assume the structure as drawn.

Assays:
[1] = tested on: Escherichia coli ATCC 10536; assay: "In vitro" MIC, Escherichia coli ATCC 10536; format: cell-based; conditions: ATCC10536; Escherichia coli ATCC 10536; dextrose agar, 37° C., 20 hours; read-out: "In vitro" MIC
Protocol: (§1) Antimicrobial pharmacological activity (G. L. Daquet and Y. A. Chabbect, Techniques en bacteriologie (Techniques in bacteriology), vol. 3, Flammarion Medecine-Sciences, Paris, 1972, and W. B. Hugo and A. D. Rusell, Pharmaceutical Microbiology, Blackwell Scientific Publications, London (1977).
Escherichia coli ATCC 10536
(§2) A streak culture of each of the microorganisms is formed in tubes of antibiotics agar no. 1 and incubated for 20 hours at 37° C. A culture loop is then taken and a culture is formed in a tryptone-soya broth and incubated for 20 hours at 37° C. The resulting culture is diluted to 1/4 with Ringer's physiological solution to give a standardized suspension of 10^5 ufc/ml for each organism.
(§3) Starting from a solution of 1000 μg/ml in 0.1N NaOH, each product is diluted successively in dextrose agar (melted beforehand and kept at 50° C.) to give the following concentrations: 64-32-16-8-4-2-1-0.5-0.25-0.125 μg of derivative/ml of medium.
(§4) After this, each concentration of each product is divided up into Petri dishes of 10 cm diameter at a rate of 10 ml of medium per dish and using as many dishes as there are microorganisms to be tested.
(§5) Once the medium has cooled, the dishes are treated with the inoculations at a rate of 0.4 ml of inoculation per dish. They are spread out with a Drigalski loop and the supernatant is collected. The inoculated dishes are incubated at 37° C. for 20 hours.

[2] = tested on: Citrobacter freundii ATCC 11606; assay: "In vitro" MIC, Citrobacter freundii; format: cell-based; conditions: ATCC11606; Citrobacter freundii ATCC 11606; dextrose agar, 37° C., 20 hours; read-out: "In vitro" MIC
Protocol: as §1
Citrobacter freundii ATCC 11606
as §2, §3, §4, §5

[3] = tested on: Sarcina lutea ATCC 9341; assay: "In vitro" MIC, Sarcina lutea; format: cell-based; conditions: Micrococcus luteus, ATCC9341; Sarcina lutea ATCC 9341; dextrose agar, 37° C., 20 hours; read-out: "In vitro" MIC
Protocol: as §1, §2, §3, §4, §5

[4] = tested on: Salmonella typhimurium AMES 98; assay: "In vitro" MIC, Salmonella typhimurium AMES 98; format: cell-based; conditions: Salmonella enterica; Salmonella typhimurium AMES 98; dextrose agar, 37° C., 20 hours; read-out: "In vitro" MIC
Protocol: as §1
Salmonella typhimurium AMES 98
as §2, §3, §4, §5

[5] = tested on: Proteus morganii CHSP-16; assay: "In vitro" MIC, Proteus morganii; format: cell-based; conditions: Morganella morganii, CHSP16; Proteus morganii CHSP-16; dextrose agar, 37° C., 20 hours; read-out: "In vitro" MIC
Protocol: as §1, §2, §3, §4, §5

[6] = tested on: Pseudomonas aeruginosa ADSA 47; assay: "In vitro" MIC, Pseudomonas aeruginosa ADSA 47; format: cell-based; conditions: ADSA47; Pseudomonas aeruginosa ADSA 47; dextrose agar, 37° C., 20 hours; read-out: "In vitro" MIC
Protocol: as §1
Pseudomonas aeruginosa ADSA 47
as §2, §3, §4, §5

[7] = tested on: Shigella flexnerii; assay: "In vitro" MIC, Shigella flexnerii; format: cell-based; conditions: 20 h, read-out: "In vitro" MIC
Protocol: as §1, §2, §3, §4, §5

[8] = tested on: Proteus mirabilis ATCC 4675; assay: "In vitro" MIC, Proteus mirabilis; format: cell-based; conditions: ATCC4675; Proteus mirabilis ATCC 4675; dextrose agar, 37° C., 20 hours; read-out: "In vitro" MIC
Protocol: as §1
Proteus mirabilis ATCC 4675
as §2, §3, §4, §5

[9] = tested on: Micrococcus flavus ATCC 10240; assay: "In vitro" MIC, Micrococcus flavus; format: cell-based; conditions: ATCC10240; Micrococcus flavus ATCC 10240; dextrose agar, 37° C., 20 hours; read-out: "In vitro" MIC
Protocol: as §1
Micrococcus flavus ATTC 10240
as §2, §3, §4, §5

[10] = Acute toxicity to mice; conditions: mouse, in vivo, ip, suspension in 5% gum arabic, mortality over 7 days
Protocol: The experimental animals used to determine this toxicity were albino mice of the C.F.L.P. strain and of both sexes, weighing between 19 and 25 grams. After an 18-hour fasting period with water "ad libitum", the derivatives forming the subject of the present invention are administered intraperitoneally as a suspension in 5% gum arabic. The volume of suspension administered was 0.4 ml/20 grams (20 ml/kg) in all cases, the concentration of the suspension being changed according to the dose administered.
One hour after administration of the derivatives, the animals are given a standard Panlab rat-mouse food. The mortality was observed over a period of 7 days. Differences in mortality between the sexes were not observed with any of the products.

[11] = tested on: Staphylococcus aureus ATCC 25178; assay: "In vitro" MIC, Staphylococcus aureus ATCC 25178; format: cell-based; conditions: ATCC25178; Staphylococcus aureus ATCC 25178; dextrose agar, 37° C., 20 hours; read-out: "In vitro" MIC
Protocol: as §1
Staphylococcus aureus ATCC 25178
as §2, §3, §4, §5

[12] = tested on: Bacillus subtilis ATCC 6633; assay: "In vitro" MIC, Bacillus subtilis; format: cell-based; conditions: ATCC6633; Bacillus subtilis ATCC 6633; dextrose agar, 37° C., 20 hours; read-out: "In vitro" MIC
Protocol: as §1
Bacillus subtilis ATCC 6633
as §2, §3, §4, §5

[13] = tested on: Serratia marcescens ATTC 13880; assay: "In vitro" MIC, Serratia marcescens; format: cell-based; conditions: ATTC13880; Serratia marcescens ATTC 13880; dextrose agar, 37° C., 20 hours; read-out: "In vitro" MIC
Protocol: as §1
Serratia marcescens ATTC 13880
as §2, §3, §4, §5

[14] = tested on: Escherichia coli R-1513; assay: "In vitro" MIC, Escherichia coli R-1513; format: cell-based; conditions: R1513; Escherichia coli R-1513; dextrose agar, 37° C., 20 hours; read-out: "In vitro" MIC
Protocol: as §1, §2, §3, §4, §5

[15] = tested on: Salmonella typhimurium AMES 100; assay: "In vitro" MIC, Salmonella typhimurium AMES 100; format: cell-based; conditions: Salmonella enterica; Salmonella typhimurium AMES 100; dextrose agar, 37° C., 20 hours; read-out: "In vitro" MIC
Protocol: as §1
Salmonella typhimurium AMES 100
as §2, §3, §4, §5

[16] = tested on: Streptococcus faecalis ATCC 10541; assay: "In vitro" MIC, Streptococcus faecalis; format: cell-based; conditions: Enterococcus faecalis, ATCC10541; Streptococcus faecalis ATCC 10541; dextrose agar, 37° C., 20 hours; read-out: "In vitro" MIC
Protocol: as §1
Streptococcus faecalis ATCC 10541
as §2, §3, §4, §5

[17] = tested on: Klebsiella pneumoniae ATCC 10031; assay: "In vitro" MIC, Klebsiella pneumoniae; format: cell-based; conditions: ATCC10031; Klebsiella pneumoniae ATCC 10031; dextrose agar, 37° C., 20 hours; read-out: "In vitro" MIC
Protocol: as §1
Klebsiella pneumoniae ATCC 10031
as §2, §3, §4, §5

[18] = tested on: Enterobacter cloacae CHSP-20; assay: "In vitro" MIC, Enterobacter cloacae; format: cell-based; conditions: CHSP20; Enterobacter cloacae CHSP-20; dextrose agar, 37° C., 20 hours; read-out: "In vitro" MIC
Protocol: as §1
Enterobacter cloacae CHSP-20
as §2, §3, §4, §5

[19] = tested on: Gram-positive cocci; assay: "In vitro" antimicrobial activity compared with nalidixic acid, Gram-positive cocci; format: cell-based
Protocol: as §1, §2, §3, §4, §5

[20] = tested on: Gram-negative microorganisms; assay: "In vitro" antimicrobial activity compared with nalidixic acid, Gram-negative microorganisms; format: cell-based
Protocol: as §1, §2, §3, §4, §5

[21] = tested on: Enterobacter aerogenes ATCC 15038; assay: "In vitro" MIC, Enterobacter aerogenes; format: cell-based; conditions: Klebsiella aerogenes, ATCC15038; Enterobacter aerogenes ATCC 15038; dextrose agar, 37° C., 20 hours; read-out: "In vitro" MIC
Protocol: as §1
Enterobacter aerogenes ATCC 15038
as §2, §3, §4, §5

[22] = tested on: Pseudomonas aeruginosa 25115; assay: "In vitro" MIC, Pseudomonas aeruginosa 25115; format: cell-based; conditions: Pseudomonas aeruginosa 25115; dextrose agar, 37° C., 20 hours; read-out: "In vitro" MIC
Protocol: as §1
Pseudomonas aeruginosa 25115
as §2, §3, §4, §5

[23] = tested on: Staphylococcus aureus ATCC 5488/23; assay: "In vitro" MIC, Staphylococcus aureus ATCC 5488/23; format: cell-based; conditions: ATCC5488; Staphylococcus aureus ATCC 5488/23; dextrose agar, 37° C., 20 hours; read-out: "In vitro" MIC
Protocol: as §1
Staphylococcus aureus ATCC 5488/23
as §2, §3, §4, §5

[24] = tested on: Enterobacteriaceae (Pseudomonas aeruginosa); assay: "In vitro" antimicrobial activity compared with nalidixic acid, Enterobacteriaceae (Pseudomonas aeruginosa); format: cell-based
Protocol: as §1, §2, §3, §4, §5

Compound | MIC [1] [µg/mL] | MIC [2] [µg/mL] | MIC [3] [µg/mL] | MIC [4] [µg/mL] | MIC [5] [µg/mL] | MIC [6] [µg/mL] | MIC [7] [µg/mL] | MIC [8] [µg/mL] | MIC [9] [µg/mL] | LD50 at 168 h [10] [mg/kg] | MIC [11] [µg/mL] | MIC [12] [µg/mL] | MIC [13] [µg/mL] | MIC [14] [µg/mL] | MIC [15] [µg/mL] | MIC [16] [µg/mL] | MIC [17] [µg/mL] | MIC [18] [µg/mL] | "in vitro" activity compared with nalidixic acid [19] | MIC [21] [µg/mL] | also measured
CCCn1cc(C(=O)O)c(=O)c2cc(F)c(-n3cccc3)cc21 [Example 5, 6-fluoro-7-(pyrrol-1-yl)-1-propyl-4-oxo-1,4-dihydroquinoline-3-carboxylic acid] | 0.5 (≈ 1.59 µM) | 8 (≈ 25.5 µM) | 8 (≈ 25.5 µM) | 1 (≈ 3.18 µM) | 8 (≈ 25.5 µM) | 32 (≈ 102 µM) | 4 (≈ 12.7 µM) | 16 (≈ 50.9 µM) | 8 (≈ 25.5 µM) | > 1600 | 0.5 (≈ 1.59 µM) | 0.125 (≈ 0.398 µM) | 1 (≈ 3.18 µM) | 8 (≈ 25.5 µM) | 1 (≈ 3.18 µM) | 8 (≈ 25.5 µM) | 0.5 (≈ 1.59 µM) | 4 (≈ 12.7 µM) | greater activity towards Gram-positive cocci | 8 (≈ 25.5 µM) | activity compared with nalidixic acid [20]: activity of the same order as nalidixic acid; MIC [22]: 32 µg/mL (≈ 102 µM); MIC [23]: 0.5 µg/mL (≈ 1.59 µM)
Cn1cc(C(=O)O)c(=O)c2cc(F)c(-n3cccc3)cc21 [Example 1, 6-fluoro-7-(pyrrol-1-yl)-1-methyl-4-oxo-1,4-dihydroquinoline-3-carboxylic acid] | 0.05 (≈ 0.175 µM) | 2 (≈ 6.99 µM) | 16 (≈ 55.9 µM) | 4 (≈ 14 µM) | 2 (≈ 6.99 µM) | ≥ 32 | 4 (≈ 14 µM) | 4 (≈ 14 µM) | 4 (≈ 14 µM) | > 800 | 0.5 (≈ 1.75 µM) | 0.125 (≈ 0.437 µM) | 16 (≈ 55.9 µM) | 4 (≈ 14 µM) | 8 (≈ 27.9 µM) | 32 (≈ 112 µM) | 1 (≈ 3.49 µM) | 2 (≈ 6.99 µM) | greater activity towards Gram-positive cocci | 2 (≈ 6.99 µM) | activity compared with nalidixic acid [20]: activity of the same order as nalidixic acid; MIC [22]: 16 µg/mL (≈ 55.9 µM); MIC [23]: 0.5 µg/mL (≈ 1.75 µM)
O=C(O)c1cn(CCO)c2cc(-n3cccc3)c(F)cc2c1=O [Example 2, 6-fluoro-7-(pyrrol-1-yl)-1-(2-hydroxyethyl)-4-oxo-1,4-dihydroquinoline-3-carboxylic acid] | 0.125 (≈ 0.395 µM) | 1 (≈ 3.16 µM) | 16 (≈ 50.6 µM) | 0.25 (≈ 0.79 µM) | 1 (≈ 3.16 µM) | ≥ 32 | 1 (≈ 3.16 µM) | 1 (≈ 3.16 µM) | 16 (≈ 50.6 µM) | > 1600 | 0.5 (≈ 1.58 µM) | ≤ 0.062 | 1 (≈ 3.16 µM) | 1 (≈ 3.16 µM) | 0.25 (≈ 0.79 µM) | 1 (≈ 3.16 µM) | 0.062 (≈ 0.196 µM) | 1 (≈ 3.16 µM) | greater "in vitro" activity than nalidixic acid | 2 (≈ 6.32 µM) | "in vitro" activity compared with nalidixic acid [24]: greater "in vitro" activity than nalidixic acid; MIC [22]: 16 µg/mL (≈ 50.6 µM); MIC [23]: 0.5 µg/mL (≈ 1.58 µM)
O=C(O)c1cn(CCF)c2cc(-n3cccc3)c(F)cc2c1=O [Example 6, 6-fluoro-7-(pyrrol-1-yl)-1-fluoroethyl-4-oxo-1,4-dihydroquinoline-3-carboxylate acid] | ≤ 0.031 | 1 (≈ 3.14 µM) | 2 (≈ 6.28 µM) | ≤ 0.031 | 0.5 (≈ 1.57 µM) | 16 (≈ 50.3 µM) | 1 (≈ 3.14 µM) | 1 (≈ 3.14 µM) | 1 (≈ 3.14 µM) | > 1600 | 0.062 (≈ 0.195 µM) | ≤ 0.031 | 1 (≈ 3.14 µM) | 0.5 (≈ 1.57 µM) | 0.25 (≈ 0.785 µM) | 0.5 (≈ 1.57 µM) | 0.062 (≈ 0.195 µM) | 0.5 (≈ 1.57 µM) | greater "in vitro" activity than nalidixic acid | 1 (≈ 3.14 µM) | "in vitro" activity compared with nalidixic acid [24]: greater "in vitro" activity than nalidixic acid; MIC [22]: 4 µg/mL (≈ 12.6 µM); MIC [23]: 0.062 µg/mL (≈ 0.195 µM)
